System: Liver microsomes
Test: not given
Details: human

SMILES	Stability [%]
O=C(NC12CC3CC(CC(C3)C1)C2)N[C@H]1CC[C@@H](OCc2c(Cl)cccc2Cl)CC1	26
CC(C)Oc1cc(F)c(CO[C@H]2CC[C@@H](NC(=O)NC34CC5CC(CC(C5)C3)C4)CC2)c(F)c1	29
O=C(NC12CC3CC(CC(C3)C1)C2)N[C@H]1CC[C@@H](OCc2ccc(Br)cc2)CC1	20
O=C(NC12CC3CC(CC(C3)C1)C2)N[C@H]1CC[C@H](OCc2ccc(Br)cc2)CC1	41
O=C(NC12CC3CC(CC(C3)C1)C2)N[C@H]1CC[C@H](OCc2ccccc2Cl)CC1	54
O=C(NC12CC3CC(CC(C3)C1)C2)N[C@H]1CC[C@H](OCc2c(Cl)cccc2Cl)CC1	51
O=C(NC12CC3CC(CC(C3)C1)C2)N[C@H]1CC[C@H](Oc2ccc(Br)cc2)CC1	23
O=C(NC12CC3CC(CC(C3)C1)C2)N[C@H]1CC[C@H](Oc2ccc(F)cc2)CC1	69
O=C(NC12CC3CC(CC(C3)C1)C2)N[C@H]1CC[C@@H](Oc2ccc(Br)cc2)CC1	35
COc1ccc(O[C@H]2CC[C@@H](NC(=O)NC34CC5CC(CC(C5)C3)C4)CC2)cc1	14
O=C(NC12CC3CC(CC(C3)C1)C2)N[C@H]1CC[C@@H](Oc2ccc([N+](=O)[O-])cc2)CC1	15
O=C(NC12CC3CC(CC(C3)C1)C2)N[C@H]1CC[C@@H](OCc2ccccc2Cl)CC1	25
O=C(NC12CC3CC(CC(C3)C1)C2)N[C@H]1CC[C@@H](Oc2ccc(F)cc2)CC1	21
O=C(NC12CC3CC(CC(C3)C1)C2)N[C@H]1CC[C@H](OCc2c(F)cccc2F)CC1	43
O=C(NC12CC3CC(CC(C3)C1)C2)N[C@H]1CC[C@@H](OCc2c(F)cccc2F)CC1	19
O=C(NC12CC3CC(CC(C3)C1)C2)N[C@H]1CC[C@H](OCc2ccccc2)CC1	67
Cc1ccccc1CO[C@H]1CC[C@H](NC(=O)NC23CC4CC(CC(C4)C2)C3)CC1	67
O=C(NC12CC3CC(CC(C3)C1)C2)N[C@H]1CC[C@@H](Oc2cc(F)cc(F)c2)CC1	20
Cc1ccccc1CO[C@H]1CC[C@@H](NC(=O)NC23CC4CC(CC(C4)C2)C3)CC1	14
CC(C)Oc1cc(F)c(CO[C@H]2CC[C@H](NC(=O)NC34CC5CC(CC(C5)C3)C4)CC2)c(F)c1	34
COc1ccc(O[C@H]2CC[C@H](NC(=O)NC34CC5CC(CC(C5)C3)C4)CC2)cc1	82

System: not listed separately
Test: in vivo
Details: dog, plasma, po, 0.3 mg/kg

SMILES	AUC [µM·h]
O=C(O)CCCCCCCCCCCNC(=O)NC12CC3CC(CC(C3)C1)C2	0.0667
CCOCCOCCOCCCCCNC(=O)NC12CC3CC(CC(C3)C1)C2	0.317

Reference: ChEMBL document CHEMBL1148702, “Orally bioavailable potent soluble epoxide hydrolase inhibitors” (J Med Chem, 2007)
